Reference: ChEMBL document CHEMBL4184182, “Studies on interactions of carbazole derivatives with DNA, cell image, and cytotoxicity” (Bioorg Med Chem, 2018)
pIC50: −log10 of the molar value. Active and inactive are the calls of the source. No cut-off for these calls is given here.

What was measured:
Quadruplex DNA [1] = test: Induction of conformational changes in c-Myc G-quadruplex DNA (unknown origin) at 15 uM after 5 mins by CD spectral analysis; assay type: nucleic-acid assay
Quadruplex DNA [2] = test: Displacement of thiazole orange from c-Kit G-quadruplex DNA (unknown origin) after 5 mins by fluorescence spectral analysis; assay type: nucleic-acid assay
dsDNA [3] = test: Displacement of thiazole orange from 26-mer duplex DNA (unknown origin) after 5 mins by fluorescence spectral analysis; assay type: nucleic-acid assay
[4] = Selectivity ratio of DC50 for 26-mer duplex DNA (unknown origin) to DC50 for c-Myc G-quadruplex DNA (unknown origin)
Quadruplex DNA [5] = test: Displacement of thiazole orange from human telomeric G-quadruplex DNA after 5 mins in presence of potassium ion by fluorescence spectral analysis; assay type: nucleic-acid assay
Quadruplex DNA [6] = test: Binding affinity to human telomeric G-quadruplex DNA assessed as enhanced fluorescence ratio at 5 uM after 5 mins in presence of potassium ion by fluorescence titration assay relative to control; assay type: nucleic-acid assay
[7] = Selectivity ratio of DC50 for 26-mer duplex DNA (unknown origin) to DC50 for Bcl2 G-quadruplex DNA (unknown origin)
Quadruplex DNA [8] = test: Induction of conformational changes in human telomeric G-quadruplex DNA at 15 uM after 5 mins in presence of sodium ion by CD spectral analysis; assay type: nucleic-acid assay
Quadruplex DNA [9] = test: Displacement of thiazole orange from c-Myc G-quadruplex DNA (unknown origin) after 5 mins by fluorescence spectral analysis; assay type: nucleic-acid assay
[10] = Selectivity ratio of Kb for Bcl2 G-quadruplex DNA (unknown origin) to Kb for calf thymus DNA
Quadruplex DNA [11] = test: Binding affinity to human telomeric G-quadruplex DNA after 5 mins in presence of sodium ion by UV-Visible absorbance titration method; assay type: nucleic-acid assay
[12] = Selectivity ratio of DC50 for 26-mer duplex DNA (unknown origin) to DC50 for c-Kit G-quadruplex DNA (unknown origin)
Quadruplex DNA [13] = test: Displacement of thiazole orange from Bcl2 G-quadruplex DNA (unknown origin) after 5 mins by fluorescence spectral analysis; assay type: nucleic-acid assay
Quadruplex DNA [14] = test: Binding affinity to c-Myc G-quadruplex DNA (unknown origin) assessed as compound fluorescence life time at 5 uM after 5 mins by fluorescence titration method (reference value: 3.626 nanoseconds); assay type: nucleic-acid assay
Quadruplex DNA [15] = test: Binding affinity to c-Kit G-quadruplex DNA (unknown origin) after 5 mins by UV-Visible absorbance titration method; assay type: nucleic-acid assay
Quadruplex DNA [16] = test: Induction of conformational changes in c-Kit G-quadruplex DNA (unknown origin) at 15 uM after 5 mins by CD spectral analysis; assay type: nucleic-acid assay
Quadruplex DNA [17] = test: Binding affinity to human telomeric G-quadruplex DNA assessed as stoichiometric ratio of compound to G-quadruplex DNA after 5 mins in presence of sodium ion by Job plot analysis; assay type: nucleic-acid assay
[18] = Selectivity ratio of Kb for c-Myc G-quadruplex DNA (unknown origin) to Kb for calf thymus DNA
[19] = Selectivity ratio of Kb for c-Kit G-quadruplex DNA (unknown origin) to Kb for calf thymus DNA
Quadruplex DNA [20] = test: Binding affinity to Bcl2 G-quadruplex DNA (unknown origin) assessed as stoichiometric ratio of compound to G-quadruplex DNA after 5 mins by Job plot analysis; assay type: nucleic-acid assay
Quadruplex DNA [21] = test: Binding affinity to c-Kit G-quadruplex DNA (unknown origin) assessed as stoichiometric ratio of compound to G-quadruplex DNA after 5 mins by Job plot analysis; assay type: nucleic-acid assay
Calf thymus DNA = test: Binding affinity to calf thymus DNA after 5 mins by UV-Visible absorbance titration method; assay type: nucleic-acid assay; details: Bos taurus
dsDNA [22] = test: Binding affinity to 26-mer duplex DNA (unknown origin) after 5 mins by UV-Visible absorbance titration method; assay type: nucleic-acid assay
Quadruplex DNA [23] = test: Displacement of thiazole orange from human telomeric G-quadruplex DNA after 5 mins in presence of sodium ion by fluorescence spectral analysis; assay type: nucleic-acid assay
Quadruplex DNA [24] = test: Binding affinity to human telomeric G-quadruplex DNA after 5 mins in presence of potassium ion by UV-Visible absorbance titration method; assay type: nucleic-acid assay
Quadruplex DNA [25] = test: Binding affinity to c-Myc G-quadruplex DNA (unknown origin) assessed as stoichiometric ratio of compound to G-quadruplex DNA after 5 mins by Job plot analysis; assay type: nucleic-acid assay
Quadruplex DNA [26] = test: Binding affinity to Bcl2 G-quadruplex DNA (unknown origin) after 5 mins by UV-Visible absorbance titration method; assay type: nucleic-acid assay
[27] = Drug uptake in RNase-A treated human HepG2 cell cytoplasm at 10 uM after 2.5 hrs by confocal microscopic method; assay type: ADME, subcellular; details: hepg2, 2.5 h
[28] = Selectivity ratio of Kb for human telomeric G-quadruplex DNA in presence of sodium ion to Kb for calf thymus DNA
Quadruplex DNA [29] = test: Binding affinity to c-Kit G-quadruplex DNA (unknown origin) assessed as emission maximum at 5 uM after 5 mins by fluorescence titration method (reference value: 559 nanometer); assay type: nucleic-acid assay
Quadruplex DNA [30] = test: Induction of conformational changes in Bcl2 G-quadruplex DNA (unknown origin) at 15 uM after 5 mins by CD spectral analysis; assay type: nucleic-acid assay
[31] = Selectivity ratio of Kb for human telomeric G-quadruplex DNA in presence of potassium ion to Kb for calf thymus DNA
Quadruplex DNA [32] = test: Binding affinity to human telomeric G-quadruplex DNA assessed as enhanced fluorescence time at 5 uM after 5 mins in presence of sodium ion by fluorescence titration assay relative to control; assay type: nucleic-acid assay
Quadruplex DNA [33] = test: Induction of conformational changes in human telomeric G-quadruplex DNA at 15 uM after 5 mins in presence of potassium ion by CD spectral analysis; assay type: nucleic-acid assay
Quadruplex DNA [34] = test: Binding affinity to human telomeric G-quadruplex DNA assessed as red shift at 15 uM after 5 mins in presence of potassium ion by UV-Visible absorbance titration method; assay type: nucleic-acid assay
HepG2 = test: Antiproliferative activity against human HepG2 cells after 72 hrs by MTT assay; assay type: functional, cell-based; details: for pIC50: HepG2, 72 h
Quadruplex DNA [35] = test: Binding affinity to human telomeric G-quadruplex DNA assessed as emission maximum at 5 uM after 5 mins in presence of potassium ion by fluorescence titration method (reference value: 559 nanometer); assay type: nucleic-acid assay
Quadruplex DNA [36] = test: Binding affinity to human telomeric G-quadruplex DNA assessed as compound fluorescence life time at 5 uM after 5 mins in presence of sodium ion by fluorescence titration method (reference value: 3.626 nanoseconds); assay type: nucleic-acid assay
[37] = Selectivity ratio of DC50 for 26-mer duplex DNA (unknown origin) to DC50 for human telomeric G-quadruplex DNA in presence of potassium ion
Quadruplex DNA [38] = test: Binding affinity to human telomeric G-quadruplex DNA assessed as stoichiometric ratio of compound to G-quadruplex DNA after 5 mins in presence of potassium ion by Job plot analysis; assay type: nucleic-acid assay
Quadruplex DNA [39] = test: Binding affinity to c-Myc G-quadruplex DNA (unknown origin) after 5 mins by UV-Visible absorbance titration method; assay type: nucleic-acid assay
[40] = Drug uptake in DNase-1 treated human HepG2 cell nucleus at 3 uM after 30 mins by H33258.staining based confocal microscopic method; assay type: ADME, subcellular; details: hepg2, 0.5 h
[41] = Drug uptake in RNase-A treated human HepG2 cell cytoplasm at 3 uM after 30 mins by H33258.staining based confocal microscopic method; assay type: ADME, subcellular; details: hepg2, 0.5 h
Quadruplex DNA [42] = test: Binding affinity to c-Kit G-quadruplex DNA (unknown origin) assessed as emission maximum at 5 uM after 5 mins by fluorescence titration method (reference value: 584 nanometer); assay type: nucleic-acid assay

CCn1c2ccccc2c2cc(/C=C(\C#N)c3ccc[n+](C)c3)ccc21.[I-]
Activity (Quadruplex DNA [1]): inactive
DC50 (Quadruplex DNA [2]): 6.03 µM
DC50 (dsDNA [3]): 13.1 µM
Selectivity ratio [4]: 2.55
DC50 (Quadruplex DNA [5]): 6.64 µM
Ratio (Quadruplex DNA [6]): > 6
Selectivity ratio [7]: 1.42
Activity (Quadruplex DNA [8]): inactive
DC50 (Quadruplex DNA [9]): 5.15 µM
Selectivity ratio [10]: 6.2
Kb (Quadruplex DNA [11]): 6.95 ×10⁴ /M
Selectivity ratio [12]: 2.17
DC50 (Quadruplex DNA [13]): 9.25 µM
Time (Quadruplex DNA [14]): 4.12 nanoseconds
Kb (Quadruplex DNA [15]): 10.7 ×10⁴ /M
Activity (Quadruplex DNA [16]): inactive
Ratio (Quadruplex DNA [17]): 1.9
Selectivity ratio [18]: 12
Selectivity ratio [19]: 6.7
Ratio (Quadruplex DNA [20]): 1.6
Ratio (Quadruplex DNA [21]): 2
Kb (Calf thymus DNA): 1 ×10⁴ /M
Kb (dsDNA [22]): 2.28 ×10⁴ /M
DC50 (Quadruplex DNA [23]): 9.85 µM
Kb (Quadruplex DNA [24]): 11.9 ×10⁴ /M
Ratio (Quadruplex DNA [25]): 2.1
Kb (Quadruplex DNA [26]): 9.99 ×10⁴ /M
Drug uptake [27]: Not Active
Selectivity ratio [28]: 4.3
Activity (Quadruplex DNA [29]): 550 nm
Activity (Quadruplex DNA [30]): inactive
Selectivity ratio [31]: 7.4
fold change (FC) (Quadruplex DNA [32]): 11.2 to 20.6
Activity (Quadruplex DNA [33]): inactive
Activity (Quadruplex DNA [34]): 23 nm
Activity (HepG2): Dose-dependent effect
pIC50 (HepG2): 5.01
Activity (Quadruplex DNA [35]): 545 nm
Time (Quadruplex DNA [36]): 7.25 nanoseconds
Selectivity ratio [37]: 1.98
Ratio (Quadruplex DNA [38]): 2.2
Kb (Quadruplex DNA [39]): 19.2 ×10⁴ /M

CCn1c2ccccc2c2cc(/C=C/c3sc4ccccc4[n+]3CC)ccc21.[I-]
Activity (Quadruplex DNA [1]): inactive
Drug uptake [40]: Not Active
DC50 (Quadruplex DNA [2]): 2.15 µM
DC50 (dsDNA [3]): 4.34 µM
Selectivity ratio [4]: 4.67
DC50 (Quadruplex DNA [5]): 1.81 µM
Selectivity ratio [7]: 5.17
Activity (Quadruplex DNA [8]): inactive
DC50 (Quadruplex DNA [9]): 0.93 µM
Selectivity ratio [10]: 24.2
Kb (Quadruplex DNA [11]): 7.86 ×10⁴ /M
Selectivity ratio [12]: 2.02
DC50 (Quadruplex DNA [13]): 0.84 µM
Kb (Quadruplex DNA [15]): 23.9 ×10⁴ /M
Activity (Quadruplex DNA [16]): inactive
Ratio (Quadruplex DNA [17]): 1.9
Selectivity ratio [18]: 41.6
Selectivity ratio [19]: 18.1
Ratio (Quadruplex DNA [20]): 1.5
Ratio (Quadruplex DNA [21]): 1.9
Kb (Calf thymus DNA): 1.32 ×10⁴ /M
Drug uptake [41]: Active
Kb (dsDNA [22]): 3.97 ×10⁴ /M
DC50 (Quadruplex DNA [23]): 6.08 µM
Kb (Quadruplex DNA [24]): 18.3 ×10⁴ /M
Ratio (Quadruplex DNA [25]): 1.9
Kb (Quadruplex DNA [26]): 32 ×10⁴ /M
Selectivity ratio [28]: 6
Activity (Quadruplex DNA [30]): inactive
Selectivity ratio [31]: 13.9
Activity (Quadruplex DNA [33]): inactive
Activity (Quadruplex DNA [42]): 588 nm
Activity (HepG2): Dose-dependent effect
pIC50 (HepG2): 5.57
Selectivity ratio [37]: 2.4
Ratio (Quadruplex DNA [38]): 2.2
Kb (Quadruplex DNA [39]): 54.9 ×10⁴ /M
